From publication PMC7178883, “1,2,4-Triazole-based anticonvulsant agents with additional ROS scavenging activity are effective in a model of pharmacoresistant epilepsy” (Journal of Enzyme Inhibition and Medicinal Chemistry, 2020)
Read-outs that look alike come from different tables or passages of the source.

What was measured:
[1] = system: 6 Hz-induced psychomotor seizures; experiment: 6 Hz psychomotor seizure test; assay type: in vivo, mice; details: for ED50: Mus musculus, ip; for Protective index (TD50/ED50): TD50 chimney test / ED50 6 Hz test
Experimental: All experiments on animals were performed in accordance with EU Directive 2010/63/EU for animal experiments and complied with the ARRIVE guidelines. Ethics approval for animal experimentations was obtained from the Local Ethics Committee (Lublin, Poland, approval number: 65/2018). Psychomotor seizures in mice were evoked by current (6 Hz, 0.2 ms rectangular pulse width, 32 mA, 3 s duration) generated by an S48 Square Pulse Stimulator and CCU1 Constant Current Unit (Grass Technologies, West Warwick, RI, USA). After application of ophthalmic anaesthetic (0.5% tetracaine hydrochloride) to the mice corneas, the animals underwent corneal stimulation and were placed separately in plexiglas cages (25 × 15 × 10 cm) for the observation of the presence or absence of psychomotor seizures. The animals were administered with increasing doses of TP-10, TP-315, TP-427, and the anticonvulsant activity of each compound was evaluated as the ED50 value (median effective dose of the drug, which protects 50% of mice against convulsions) calculated using the log-probit method of Litchfield and Wilcoxon[18].

[2] = target: T1, hCA II (Homo sapiens, UniProt P00918); experiment: Carbonic anhydrase inhibition, stopped flow CO2 hydration; assay type: biochemical
T1 construct: made in house
Experimental: (§1) Carbonic anhydrase catalysed CO2 hydration activity was measured using an Applied Photophysics stopped-flow spectrometer. […] The uncatalyzed rates were determined in the same manner and subtracted from the total observed rates. Stock solutions of inhibitor (0.1 mM) were prepared in distilled-deionized water and dilutions up to 0.01 nM were done thereafter with the assay buffer. […] The inhibition constants were obtained by non-linear least-squares methods using PRISM 3 and the Cheng–Prusoff equation and represent the mean from at least three different determinations. All CA isoforms were recombinant ones obtained in-house[21]^,[22].

[3] = system: HEK-293; set-up: method as in PMID 30594731, PMID 28824309; details: 10 µg/ml; cited from earlier work
[4] = system: HepG2; set-up: method as in PMID 30594731, PMID 28824309; details: 10 µg/ml; cited from earlier work
[5] = target: T2, hCA I (Homo sapiens, UniProt P00915); experiment: Carbonic anhydrase inhibition, stopped flow CO2 hydration; assay type: biochemical; details: 1 h incubation
T2 construct: made in house
T2 sequence (P00915 whole entry): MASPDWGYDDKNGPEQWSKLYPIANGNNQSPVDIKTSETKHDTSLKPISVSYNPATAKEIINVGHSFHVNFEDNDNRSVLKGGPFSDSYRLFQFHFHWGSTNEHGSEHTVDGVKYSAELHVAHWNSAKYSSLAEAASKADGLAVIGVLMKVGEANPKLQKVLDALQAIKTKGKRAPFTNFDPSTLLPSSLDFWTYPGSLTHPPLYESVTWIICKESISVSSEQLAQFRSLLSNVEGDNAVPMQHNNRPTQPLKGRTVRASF
Experimental: as §1

[6] = system: motor coordination; details: cited from earlier work; for TD50 ± SEM: chimney test
[7] = mice, i.p., 32 mA, pretreatment time 15 min, read-out: ED50 ± SEM
[8] = mice, i.p., 32 mA, pretreatment time 30 min, read-out: ED50 ± SEM
[9] = mice, i.p., 32 mA, pretreatment time 60 min, read-out: ED50 ± SEM
[10] = mice, i.p., 32 mA, pretreatment time 120 min, read-out: ED50 ± SEM
[11] = mice, i.p., pretreatment times 15 to 120 min, read-out: ED50, range over the time-course
[12] = 1 h incubation, read-out: KI hCA II (1h)
[13] = 6 h incubation, read-out: KI hCA II (6h)
[14] = incubation time not given, read-out: Ki CA II

Structure (SMILES)	ED50 [1, 7] [mg/kg]	ED50 [1, 8] [mg/kg]	ED50 [1, 9] [mg/kg]	ED50 [1, 10] [mg/kg]	ED50 [1, 11] [mg/kg]	Protective index (TD50/ED50) ([1]; pretreatment time 15 min)	Protective index (TD50/ED50) ([1]; pretreatment time 30 min)	Protective index (TD50/ED50) ([1]; pretreatment time 60 min)	Protective index (TD50/ED50) ([1]; pretreatment time 120 min)	Peak of anticonvulsant activity (time after i.p. administration) ([1]; mice, i.p.) [min]	Ki [2, 12] [µM]	Ki [2, 13] [µM]	Ki [2, 14] [µM]	toxicity for HEK-293 cells [3]	toxicity for HepG2 cells [4]	Ki [5] [µM]	TD50 ([6]; Figure 1, pretreatment time not given) [mg/kg]	TD50 ± SEM ([6]; pretreatment time 15 min) [mg/kg]	TD50 ± SEM ([6]; pretreatment time 30 min) [mg/kg]	ED50 ([1]; 0.5 h, within the first 30 min after i.p. administration, read-out: ED50 (constant activity)) [mg/kg]
CCCCCCn1c(-c2cccc(Cl)c2)n[nH]c1=S [TP-315, 5-(3-chlorophenyl)-4-hexyl-2,4-dihydro-3H-1,2,4-triazole-3-thione]	61.3 ± 10.1	59.7 ± 6.8	68.1 ± 11	136 ± 18.3	59.7 to 136	7.6	7.8	6.7	3.3	30	> 100	> 100	> 100	non-toxic	non-toxic					
CCCCCCn1c(Cc2cccc(Cl)c2)n[nH]c1=S [TP-427, 5-(3-chlorobenzyl)-4-hexyl-2,4-dihydro-3H-1,2,4-triazole-3-thione]	40.9 ± 6.4	46.6 ± 8.2	51.6 ± 6.9	64.9 ± 5.6	40.9 to 64.9	>24.4	>21.5	10.5	8.5	15	> 100	> 100	> 100	non-toxic	non-toxic	> 100	> 1000	>1000	>1000	
Cc1ccc(-n2c(-c3cccc(Cl)c3)n[nH]c2=S)cc1 [TP-10, 5-(3-chlorophenyl)-4-(4-methylphenyl)-2,4-dihydro-3H-1,2,4-triazole-3-thione]	62.6 ± 13.2	61.1 ± 9.7	170 ± 18.5	168 ± 17.4	61.1 to 170	5.4	5.5	2.0	2.4	30	74.6	> 100				2.19				~60
